Values joined by “and” are separate entries in the source; they are usually repeats but may differ in a detail not shown here. Equal entries are not always repeated.
Assays:
Format in all cases: in vivo
Details in all cases: no safener
Wheat (Triso) [1] = assay: Pre-emergence herbicidal effect and safener effect on wheat, visual scoring in greenhouse
Excerpt: (§1) Seeds or rhizome pieces of mono- and dicotyledonous weed plants and crop plants are planted in peat pots in sandy loam and covered with earth. The herbicide/safener active ingredient combinations according to the invention, formulated as water-soluble powders or suspensions, and, in parallel experiments, the correspondingly formulated individual active ingredients were then applied to the surface of the covering earth at an application rate of 600 to 800 I of water/ha (converted) in a variety of dosages.
(§2) After the treatment, the pots were placed in the greenhouse and kept under good growth conditions for the weeds and the crop plants. Visual scoring of the plant damage or emergence damage was carried out after the test plants had emerged after a test period of 2 to 4 weeks, in comparison with untreated controls.

Wheat (Triso) [2] = assay: Post-emergence herbicidal effect and safener effect on wheat, visual scoring in greenhouse
Procedure: (§3) Seeds or rhizome pieces of mono- and dicotyledonous harmful plants and of crop plants are planted in peat pots in sandy loam, covered with earth and grown in a greenhouse under good growth conditions. Alternatively to this, harmful plants occurring in the paddy rice cultivation are cultivated in pots in which water comes to 2 cm above the soil surface. 10 to 20 days after sowing, the test plants are treated in the one-to three-leaf stage. The herbicide/safener active ingredient combinations according to the invention, formulated as water-soluble powders or suspensions, and, in parallel experiments, the correspondingly formulated individual active ingredients are sprayed onto the green plant parts in various dosages using an application rate of 300 I of water/ha (converted) and, after the test plants have remained in the greenhouse under optimum growth conditions for 2-3 weeks, the effect of the preparations is scored visually in comparison with untreated controls. In the case of rice or in the case of harmful plants which occur in the rice cultivation, the active ingredients are also placed directly into the irrigation water (application analogous to the so-called granules application) or sprayed onto plants and into the irrigation water.

Corn (Aventura) [3] = assay: Pre-emergence herbicidal effect and safener effect on corn, visual scoring in greenhouse
Excerpt: as §1, §2

Corn (Aventura) [4] = assay: Post-emergence herbicidal effect and safener effect on corn, visual scoring in greenhouse
Procedure: as §3

Rice (Ballila) = assay: Post-emergence herbicidal effect and safener effect on rice, visual scoring in greenhouse
Procedure: as §3

SMILES: Nc1nc(C2CC2)nc(C(=O)O)c1Cl [Compound I-1, 6-amino-5-chloro-2-cyclopropyl-4-pyrimidinecarboxylic acid]
- % effect (without safener) (Wheat (Triso) [1]; herbicide 25 g a.i./ha): 30%
- % effect (without safener) (Wheat (Triso) [2]; herbicide 50 g a.i./ha): 20%
- % effect (without safener) (Corn (Aventura) [3]; herbicide 100 g a.i./ha): 50%

SMILES: CCOC(=O)c1nc(C2CC2)nc(N)c1Cl [Compound I-3, ethyl 6-amino-5-chloro-2-cyclopropyl-4-pyrimidinecarboxylate]
- % effect (without safener) (Corn (Aventura) [3]; herbicide 50 g a.i./ha): 20% and 25%
- % effect (without safener) (Corn (Aventura) [4]; herbicide 50 g a.i./ha): 60%
- % effect (without safener) (Rice (Ballila); herbicide 25 g a.i./ha): 60%

SMILES: Nc1nc(-c2ccc(Cl)cc2)nc(C(=O)O)c1Cl [Compound I-109, 6-amino-5-chloro-2-(4-chlorophenyl)-4-pyrimidinecarboxylic acid]
- % effect (without safener) (Wheat (Triso) [1]; herbicide 25 g a.i./ha): 20%
- % effect (without safener) (Wheat (Triso) [2]; herbicide 25 g a.i./ha): 30%
- % effect (without safener) (Corn (Aventura) [3]; herbicide 25 g a.i./ha): 20%
- % effect (without safener) (Corn (Aventura) [4]; herbicide 25 g a.i./ha): 60%

SMILES: Nc1nc(C2CC2)nc(C(=O)[O-])c1Cl.[K+] [Compound I-163, potassium salt of 6-amino-5-chloro-2-cyclopropyl-4-pyrimidinecarboxylic acid]
- % effect (without safener) (Wheat (Triso) [1]; herbicide 50 g a.i./ha): 20%
- % effect (without safener) (Wheat (Triso) [2]; herbicide 25 g a.i./ha): 10%
- % effect (without safener) (Corn (Aventura) [3]; herbicide 50 g a.i./ha): 50%
- % effect (without safener) (Corn (Aventura) [4]; herbicide 25 g a.i./ha): 20%

SMILES: Nc1nc(C2CC2)nc(C(=O)[O-])c1Cl.[Na+] [Compound I-164, 6-amino-5-chloro-2-cyclopropyl-4-pyrimidinecarboxylic acid sodium salt]
- % effect (without safener) (Wheat (Triso) [1]; herbicide 25 g a.i./ha): 10%
- % effect (without safener) (Wheat (Triso) [2]; herbicide 25 g a.i./ha): 20%
- % effect (without safener) (Rice (Ballila); herbicide 25 g a.i./ha, sodium salt): 10% and 20%
- % effect (without safener) (Rice (Ballila); herbicide 50 g a.i./ha): 20%
